Measured values published in US6500841B1, “Inhibitors of farnesyl-protein transferase” (Merck & Co., Inc., priority 1994, dated 2002).

Experiments:
[1] = system: Ras farnesylation in the v-ras cell line (viral Ha-ras p21); experiment: cells; type: cell-based; details: v-ras cell line expressing viral Ha-ras p21; <1 = >50% inhibition at a 1 μM concentration
Description: The cell line used in this assay was the v-ras line, which expressed viral Ha-ras p21. The assay was performed essentially as described in DeClue, J. E. et. al., Cancer Research 51, 712-717, (1991). Cells in 10 cm dishes at 50-75% confluency were treated with the test compound (final concentration of solvent, methanol or dimethyl sulfoxide, was 0.1%). After 4 hours at 37° C., the cells were labelled in 3 ml methionine-free DMEM supplemeted with 10% regular DMEM, 2% fetal bovine serum and 400 μCi[^35S]methionine (1000 Ci/mmol). After an additional 20 hours, the cells were lysed in 1 ml lysis buffer (1% NP40/20 mM HEPES, pH 7.5/5 mM MgCl2/1 mM DTT/10 μg/ml aprotinen/2 μg/ml leupeptin/2 μg/ml antipain/0.5 mM PMSF) and the lysates cleared by centrifugation at 100,000×g for 45 min. Aliquots of lysates containing equal numbers of acid-precipitable counts were brought to 1 ml with IP buffer (lysis buffer lacking DTF) and immunoprecipitated with the ras-specific monoclonal antibody Y13-259 (Furth, M. E. et. al., J. Virol. 43, 294-304, (1982)). Following a 2 hour antibody incubation at 4° C., 200 μl of a 25% suspension of protein A-Sepharose coated with rabbit anti rat IgG was added for 45 min. The immunoprecipitates were washed four times with IP buffer ([…], pH 7.5/1 mM EDTA/1% Triton X-100.0.5% deoxycholate/0.1%/SDS/0.1 M NaCl) boiled in SDS-PAGE sample buffer and loaded on 13% acrylamide gels. When the dye front reached the bottom, the gel was fixed, soaked in Enlightening, dried and autoradiographed. The intensities of the bands corresponding to farnesylated and nonfarnesylated ras proteins were compared to determine the percent inhibition of farnesyl transfer to protein.

[2] = molecular target: Farnesyl-protein transferase (FTase) (UniProt P49354+P49356); experiment: In vitro inhibition of Ras farnesyl transferase; type: biochemical; details: Ras-CVLS at 3.5 μM, 0.25 μM [3H]FPP; partially purified bovine or recombinant human enzyme; concentration giving 50% inhibition of FTase; read-out: Inhibition of RAS farnesylation, IC50
Description: Farnesyl-protein transferase (FTase) from bovine brain was chromatographed on DEAE-Sephacel (Pharmacia, 0-0.8 M NaCl gradient elution), N-octyl agarose (Sigma, 0-0.6 M NaCl gradient elution), and a mono Q HPLC column (Pharmacia, 0-0.3 M NaCl gradient). Ras-CVLS at 3.5 μM, 0.25 μM [^3H]FPP, and the indicated compounds were incubated with either a partially purified bovine enzyme preparation or a recombinant human enzyme preparation. The recombinant human enzyme was prepared as described in Omer, C. A., Kral, A. M., Diehl, R. E., Prendergast, G. C., Powers, S., Allen, C. M., Gibbs, J. B. and Kohl, N. E. (1993) Biochemistry 32:5167-5176. The Frase data presented below in Table 1 reflects the ability of the test compound to inhibit RAS farnesylation in vitro, as described in Pompliano, et al., Biochemistry 31, 3800 (1992).

| SMILES | IC50 [1] [nM] | IC50 [2] [nM] |
| --- | --- | --- |
| CCC(C)[C@@H](CN1Cc2ccccc2C[C@H]1C(=O)N[C@@H](CCSC)C(=O)OC)NC[C@@H](N)CS (stereo partly drawn) [Compound 1, N-[N′-[2(S)-(2(R)-amino-3-mercaptopropylamino)-3(S)-methylpentyl]-1,2,3,4-tetrahydro-3(S)-isoquinolinecarboxyl]-methionine methyl ester] | 250 | 680 |
| CCC(C)[C@@H](CN1Cc2ccccc2C[C@H]1C(=O)N[C@@H](CCSC)C(=O)O)NC[C@@H](N)CS (stereo partly drawn) [Compound 2, N-[N′-[2(S)-(2(R)-amino-3-mercaptopropylamino)-3(S)-methylpentyl]-1,2,3,4-tetrahydro-3(S)-isoquinolinecarboxyl]-methionine] | – | 0.39 |
| CC[C@H](C)[C@@H](CN1CCC[C@H]1C(=O)N[C@@H](CCSC)C(=O)OC)NC[C@@H](N)CS [Compound 3, N-[2(S)-(2(R)-amino-3-mercaptopropylamino)-3(S)-methylpentyl]-prolyl-methionine methyl ester] | 250 | 100 |
| CC[C@H](C)[C@@H](CN1CCC[C@H]1C(=O)N[C@@H](CCSC)C(=O)O)NC[C@@H](N)CS [Compound 4, N-[2(S)-(2(R)-amino-3-mercaptopropylamino)-3(S)-methylpentyl]-prolyl-methionine] | 10000 | 17 |
| CC[C@H]1CCN(C[C@@H](NC[C@@H](N)CS)[C@@H](C)CC)[C@@H]1C(=O)N[C@@H](CCSC)C(=O)OC [Compound 5, N-[2(S)-(2(R)-amino-3-mercaptopropylamino)-3(S)-methylpentyl]-trans-3-ethyl-prolyl-methionine methyl ester] | < 1000 | 520 |
| CC[C@H]1CCN(C[C@@H](NC[C@@H](N)CS)[C@@H](C)CC)[C@@H]1C(=O)N[C@@H](CCSC)C(=O)O [Compound 6, N-[2(S)-(2(R)-amino-3-mercaptopropylamino)-3(S)-methylpentyl]-trans-3-ethyl-prolyl-methionine] | – | 10 |
| CC[C@@H]1CCN(C[C@@H](NC[C@@H](N)CS)[C@@H](C)CC)[C@@H]1C(=O)N[C@@H](CCSC)C(=O)OC [Compound 7, N-[2(S)-(2(R)-amino-3-mercaptopropylamino)-3(S)-methylpentyl]-cis-3-ethyl-prolyl-methionine methyl ester] | 1000 | 2300 |
| CC[C@@H]1CCN(C[C@@H](NC[C@@H](N)CS)[C@@H](C)CC)[C@@H]1C(=O)N[C@@H](CCSC)C(=O)O [Compound 8, N-[2(S)-(2(R)-amino-3-mercaptopropylamino)-3(S)-methylpentyl]-cis-3-ethyl-prolyl-methionine] | – | 4.2 |
| CC[C@H](C)[C@@H](CN1CCC[C@H]1C(=O)N[C@@H](CCS(C)(=O)=O)C(=O)OC)NC[C@@H](N)CS [Compound 9, N-[2(S)-(2(R)-amino-3-mercaptopropylamino)-3(S)-methylpentyl]-prolyl-methionine sulfone methyl ester] | > 10000 | 950 |
| CCC(C)C(CN1CCCC1C(=O)NC(CCS(C)(=O)=O)C(=O)O)NCC(N)CS [Compound 10, N-[2(S)-(2(R)-amino-3-mercaptopropylamino)-3(S)-methylpentyl]-prolyl-methionine sulfone] | – | 35 |
| CCC(C)[C@@H](CN1Cc2ccccc2C[C@H]1C(=O)N[C@H]1CCOC1=O)NC[C@@H](N)CS (stereo partly drawn) [Compound 13, N-[N′-[2(S)-(2(R)-amino-3-mercaptopropylamino)-3(S)-methylpentyl]-1,2,3,4-tetrahydro-3(S)-isoquinolinecarboxyl]-homoserine lactone] | > 10000 | 390 |
| CCC(C)[C@@H](CN1Cc2ccccc2C[C@H]1C(=O)N[C@@H](CCO)C(=O)O)NC[C@@H](N)CS (stereo partly drawn) [Compound 14, N-[N′-[2(S)-(2(R)-amino-3-mercaptopropylamino)-3(S)-methylpentyl]-1,2,3,4-tetrahydro-3(S)-isoquinolinecarboxyl]-homoserine] | – | 7.6 |
| CCC(C)C(CN1CCCC1C(=O)NC1CCOC1=O)NCC(N)CS [Compound 15, N-[2(S)-(2(R)-amino-3-mercaptopropylamino)-3(S)-methylpentyl]-prolyl-homoserine lactone] | 50000 | 1400 |
| CC[C@H](C)[C@@H](CN1CCC[C@H]1C(=O)N[C@@H](CCO)C(=O)O)NC[C@@H](N)CS [Compound 16, N-[2(S)-(2(R)-amino-3-mercaptopropylamino)-3(S)-methylpentyl]-prolyl-homoserine] | – | 45 |
| CCC(C)C(CN1CCCCC1C(=O)NC1CCOC1=O)NCC(N)CS [Compound 17, N-[2(S)-(2(R)-amino-3-mercaptopropylamino)-3-methylpentyl]-2(S)-pipecolyl-homoserine lactone] | – | 24000 |
| CCC(C)C(NCC(N)CS)C(=O)N1CCCC1C(=O)NC1CCOC1=O [Compound 19, N-[2(R)-amino-3-mercaptopropyl]-isoleucyl-prolyl-homserine lactone] | – | 10000 |
| CCC(C)C(NCC(N)CS)C(=O)N1CCCC1C(=O)NC(CCO)C(=O)O [Compound 20, N-[2(R)-amino-3-mercaptopropyl]-isoleucyl-prolyl-homserine] | – | 350 |
| CCC(C)C(NCC(N)CS)C(=O)N1CCCCC1C(=O)NC1CCOC1=O [Compound 21, N-[2(R)-amino-3-mercaptopropyl]-isoleucyl-2(S)-pipecolyl-homserine lactone] | – | 25000 |
| CCC(C)C(NCC(N)CS)C(=O)N1CCCCC1C(=O)NC(CCO)C(=O)O [Compound 22, N-[2(R)-amino-3-mercaptopropyl]-isoleucyl-2(S)-pipecolyl-homserine] | – | 340 |
| CCC(C)C(CN1CCCC1C(=O)NC(CCSC)C(=O)OC)N(C)CC(N)CS [Compound 23, N-[2(S)-(2(R)-amino-3-(mercaptopropyl)methylamino)-3(S)-methylpentyl]-prolyl-methionine methyl ester] | < 1000 | 1200 |
| CCC(C)C(CN1CCCC1C(=O)NC(CCSC)C(=O)O)N(C)CC(N)CS [Compound 24, N-[2(S)-(2(R)-amino-3-(mercaptopropyl)methylamino)-3(S)-methylpentyl]-prolyl-methionine] | – | 6 |
| CCC(C)C(CN1CCCC1C(=O)NC(CCS(C)(=O)=O)C(=O)OC)N(C)CC(N)CS [Compound 25, N-[2(S)-(2(R)-amino-3-(mercaptopropyl)methylamino)-3(S)-methylpentyl]-prolyl-methionine sulfone methyl ester] | – | 10000 |
| CCC(C)C(CN1CCCC1C(=O)NC(CCS(C)(=O)=O)C(=O)O)N(C)CC(N)CS [Compound 26, N-[2(S)-(2(R)-amino-3-(mercaptopropyl)methylamino)-3(S)-methylpentyl]-prolyl-methionine sulfone] | – | 56 |
